Reference: patent publication US20150374705A1, “Substances for treatment or relief of pain” (Shanghai Institues for Biological Sciences, priority 2012, published 2015)

Assays:
Format in all cases: in vivo
[1] = system: SNI model rats (neuropathic pain); experiment: Spared nerve injury (SNI) model, neuropathic pain, mechanical pain threshold; conditions: rat, intrathecal injection 7 days after SNI, threshold at 9-17 days
Protocol: Male SD rats (200-250 g) were used, 6 per group in the cage. All the animals were placed under 12 hours light/cycle (i.e. 12 hours light and 12 hours dark in each day), free to food and water. All the experiments were conducted under the condition that the observers were blind to pharmaceutical treatment.
Spared nerve injury model (SNI): 10% chloral hydrate was injected intraperitoneally to anesthetize rats. […] The muscle was longitudinally separated to expose the core of sciatic nerve and the branching below: tibial nerve, common peroneal nerve and sural nerve. The tibial nerve and common peroneal nerve were ligatured and cut and small sural nerve was retained, meanwhile preventing any injury. The muscle and skin were sutured layer by layer, and then antibiotics were injected intraperitoneally for antibacterial purpose. For detailed methods, please refer to Decosterd I and Woolf C J. Spared nerve injury: an animal model of persistent peripheral neuropathic pain. 2000 August; Pain 87(2):149-58.
Method for detecting mechanical hyperalgesia in rats: firstly CFA solution was injected in the thenar of rats. After 24 hours, mechanical hyperalgesia quantitative detection was adopted to measure the paw withdrawal of rats to normal and harmless mechanical stimulation. Evaluation was conducted according to reference (Chaplan S R et al., Quantitative assessment of tactile allodynia in the rat paw. J Neurosci Methods. 1994 July; 53(1):55-63). In this method, the von Frey fibers with different bending force (equivalent to the range of 1-50 g force) were used to apply harmless mechanical stimulation. The rats were placed in organic glass box with metal mesh plate, and the von Frey fibers were applied on the surface of leg thenar. The von Frey fibers were applied vertically to the surface of thenar to generate the force that will trigger slight resistance to the leg. 2-3 seconds were maintained for every leg thenar. If the leg withdrew suddenly, positive records were recorded. The threshold was the mean of the weight that caused 50% paw withdrawal response (5-6 paw withdrawal/10 stimulations) in overall 10 stimulations.
Compounds MRK 016, C2, C3, C4, C5, C6, C7, C8 or α5IA (A5I) were dissolved in 70% PGE400 (PGE400:water=70:30 in volume). For injection dose, MRK016 was 2 mg/kg body weight; A5I was 3 mg/kg body weight; C2, C3, C4, C5, C6, C7 and C8 were 3 mg/kg body weight.
MRK016-M3 was dissolved in 90% PGE400 (PGE400:water=90:10 in volume). The doses were 10 mg/kg, 3 mg/kg, 1 mg/kg and 0.3 mg/kg, respectively for oral administration.
The method for behavioral data statistics was unpaired t-test. *, p<0.05, represents significant difference.

[2] = system: CFA induced inflammatory pain model rats (heat pain); experiment: CFA induced inflammatory pain model, heat pain threshold; conditions: rat, spinal injection the day before CFA, measured every day
[3] = system: CFA induced inflammatory pain model rats (mechanical pain); experiment: CFA induced inflammatory pain model, mechanical pain threshold; conditions: rat, spinal injection the day before CFA, measured every day
[4] = system: α5 subunit protein of GABAA receptor in dorsal root ganglion; experiment: Knock-down of α5 subunit of GABAA receptor in dorsal root ganglion, western blot; conditions: rat, intrathecal injection
Protocol: In western blot experiment, obtained dorsal root ganglion was lysed in RIPA (50 mM Tris (pH7.4), 150 mM NaCl, 1% Triton X-100, 1% sodium deoxycholate, 0.1% SDS as well as sodium orthovanadate, sodium fluoride, EDTA and leupeptin. The proteins were boiled at 100° C. for 5 minutes for denaturation. 10-20 μl samples were added into the prepared channels after the protein samples became cool. Then, electrophoresis was conducted at 60 V for 30 minutes. After the samples passed the boundary between the upper layer gel and the lower layer gel, the voltage was adjusted to 90 V until bromophenol blue reached the lower edge of the lower layer gel. After electrophoresis, the SDS gel that contained target bands was cut for transferring. Through electric transferring, the negative charged proteins were transferred to positive charged PVDF membrane. The blocking buffer that contained 5% skim milk powder was used to block the membrane for 1 hour to reduce unspecific binding. Then, the PVDF membrane was immersed in the blocking buffer containing primary antibody and incubated overnight at 4° C. or 1-2 hours at room temperature. […] Finally, PVDF membrane was incubated with the substrate of horse radish peroxidase ECL-PLUS for 5 minutes in dark to produce fluorescence signal. Then X-ray film was used to capture the fluorescence signal on PVDF membrane. […]

siRNA specific to the mRNA of α5-GABAA receptor: siRNA, sequence 5′GGUGCGAACAGACAUCUAUTT 3′ (chemistry not given here)
Pain threshold in SNI model after siRNA [1]: significantly elevated pain threshold | Heat pain threshold after siRNA [2]: inhibit the inflammatory pain efficiently | Mechanical pain threshold after siRNA [3]: inhibit the inflammatory pain efficiently | Expression of the α5 subunit of GABAA receptor in dorsal root ganglion [4]: significantly knocked-out the expression
